The numbers were not newly measured in patent publication EP4582084A1, “CRYSTAL FORM OF KETOAMIDE DERIVATIVE AND PREPARATION METHOD THEREFOR” (Guangdong Raynovent Biotech Co., Ltd., priority 2022, dated 2024), which cites them from elsewhere.

In the data set the test system is novel coronavirus. The note with it: in vitro, preclinical trials.

For `Cn1cnc(Cn2c(=O)[nH]/c(=N\c3cc4cn(C)nc4cc3Cl)n(Cc3cc(F)c(F)cc3F)c2=O)n1` [S-217622], the EC50 (commonly the midpoint of the concentration-response curve) is 370 nM.
